We go through 29 molecules from patent US20090270371A1, “QUINOLINE DERIVATIVES USEFUL IN THE TREATMENT OF MGLUR5 RECEPTOR-MEDIATED DISORDERS” (priority 2005, published 2009).

The structures appear in SMILES notation. pKi: −log10 of the molar value. A value given as a limit tells only on which side of the number the result lay.

T1 sequence (P31424 21-1203): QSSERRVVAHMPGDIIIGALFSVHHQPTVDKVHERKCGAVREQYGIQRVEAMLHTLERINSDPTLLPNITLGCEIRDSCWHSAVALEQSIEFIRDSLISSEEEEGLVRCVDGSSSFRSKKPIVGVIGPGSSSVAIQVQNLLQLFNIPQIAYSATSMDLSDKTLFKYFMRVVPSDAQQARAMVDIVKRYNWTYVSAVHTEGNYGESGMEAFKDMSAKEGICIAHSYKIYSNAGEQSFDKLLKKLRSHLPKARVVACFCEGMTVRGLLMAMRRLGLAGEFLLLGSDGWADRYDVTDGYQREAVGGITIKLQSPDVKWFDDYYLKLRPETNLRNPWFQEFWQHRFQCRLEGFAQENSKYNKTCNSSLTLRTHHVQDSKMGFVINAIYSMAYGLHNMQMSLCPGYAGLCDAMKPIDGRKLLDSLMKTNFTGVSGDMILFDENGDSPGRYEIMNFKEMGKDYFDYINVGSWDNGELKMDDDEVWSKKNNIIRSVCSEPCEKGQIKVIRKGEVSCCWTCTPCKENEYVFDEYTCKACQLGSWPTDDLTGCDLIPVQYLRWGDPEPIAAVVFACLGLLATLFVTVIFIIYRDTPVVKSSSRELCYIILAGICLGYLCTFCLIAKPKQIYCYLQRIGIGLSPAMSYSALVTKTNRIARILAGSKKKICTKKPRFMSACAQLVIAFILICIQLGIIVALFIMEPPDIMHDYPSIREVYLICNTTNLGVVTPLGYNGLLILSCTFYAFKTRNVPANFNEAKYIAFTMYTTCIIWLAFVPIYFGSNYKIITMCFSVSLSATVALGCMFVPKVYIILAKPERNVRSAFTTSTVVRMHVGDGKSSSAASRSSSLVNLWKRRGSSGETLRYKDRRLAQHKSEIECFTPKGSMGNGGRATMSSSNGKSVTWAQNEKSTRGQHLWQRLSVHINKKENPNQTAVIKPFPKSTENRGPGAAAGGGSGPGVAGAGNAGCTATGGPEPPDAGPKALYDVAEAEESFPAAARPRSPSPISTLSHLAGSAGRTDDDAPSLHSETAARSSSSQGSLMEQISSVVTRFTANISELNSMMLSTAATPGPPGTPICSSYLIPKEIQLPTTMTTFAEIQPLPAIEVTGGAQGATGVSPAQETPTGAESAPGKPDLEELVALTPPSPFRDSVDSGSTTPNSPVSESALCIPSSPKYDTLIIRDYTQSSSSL

This assay concerns the target T1, rat mGluR5 receptors (Rattus norvegicus, UniProt P31424).
T1 construct: rat cerebro-cortical membrane preparation was used; from tissue; host or cells: rat cerebral cortex membranes
As to the kind of experiment: mGluR5 receptor binding test, rat cerebro-cortical membrane preparation, [3H]-M-MPEP. As to conditions: affinity for rat mGluR5 receptors; [3H]-M-MPEP (2 nM) radioligand. In outline:
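Radioligand binding used rat cerebro-cortical membranes with 2 nM [3H]-M-MPEP. Nonspecific binding was defined with 10 μM M-MPEP. The method follows a modification of a published procedure.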
For `Cc1ccc(S(=O)(=O)c2cnc3cc(Cl)ccc3c2N2CCC(C)CC2)cc1C` [Compound 199], the pKi (in general, −log10 of the Ki, conventionally taken in molar units) is greater than 6.70.

`COc1ccc(S(=O)(=O)c2cnc3cc(Cl)ccc3c2N2CCC(C)CC2)cc1Cl` [Compound 200] gave a pKi greater than 6.70.

In turn, `CC1CCN(c2c(S(=O)(=O)c3cccc(Cl)c3)cnc3cc(Cl)ccc23)CC1` [Compound 201] showed a negative-log Ki (pKi) greater than 6.70.

As to `CC1CCN(c2c(S(=O)(=O)c3ccc(Cl)c(Cl)c3)cnc3cc(Cl)ccc23)CC1` [Compound 202], the negative logarithm of the Ki (pKi) was greater than 6.70.

Molecule `Cc1ccc(S(=O)(=O)c2cnc3cc(Cl)ccc3c2N2CCC(C)CC2)cc1F` [Compound 203] gave a pKi greater than 6.70.

For `CC1CCN(c2c(S(=O)(=O)c3ccc(C#N)cc3)cnc3cc(Cl)ccc23)CC1` [Compound 204], the pKi is 6.30 to 6.70.

In turn, `Cc1ccc(S(=O)(=O)c2cnc3cc(Cl)ccc3c2N2CCC(C)CC2)cc1Cl` [Compound 205] had a negative-log Ki (pKi) greater than 6.70.

Regarding `CC1CCN(c2c(S(=O)(=O)c3ccc(F)c(F)c3)cnc3cc(Cl)ccc23)CC1` [Compound 206], the negative-log Ki (pKi) is greater than 6.70.

As for `CC1CCN(c2c(S(=O)(=O)c3ccc(F)c(Cl)c3)cnc3cc(Cl)ccc23)CC1` [Compound 207], the pKi is greater than 6.70.

Regarding `CC1CCN(c2c(S(=O)(=O)c3cc(Cl)cc(Cl)c3)cnc3ccc(Cl)cc23)CC1` [Compound 208], the pKi was greater than 6.70.

The molecule `CC1CCN(c2c(S(=O)(=O)c3cc(F)cc(F)c3)cnc3ccc(Cl)cc23)CC1` [Compound 209] gave a pKi greater than 6.70.

For the molecule `CC1CCN(c2c(S(=O)(=O)c3cccc(C#N)c3)cnc3ccc(Cl)cc23)CC1` [Compound 210], the pKi is greater than 6.70.

In turn, `Cc1ccc(S(=O)(=O)c2cnc3ccc(Cl)cc3c2N2CCC(C)CC2)cc1` [Compound 211] had a negative logarithm of the Ki (pKi) greater than 6.70.

In turn, `CC1CCN(c2c(S(=O)(=O)c3ccc(F)cc3)cnc3ccc(Cl)cc23)CC1` [Compound 212] showed a negative logarithm of the Ki (pKi) greater than 6.70.

`CC1CCN(c2c(S(=O)(=O)c3ccc(Cl)cc3)cnc3ccc(Cl)cc23)CC1` [Compound 213]: the pKi is greater than 6.70.

Regarding `CC1CCN(c2c(S(=O)(=O)c3cccc(F)c3)cnc3ccc(Cl)cc23)CC1` [Compound 214], the negative logarithm of the Ki (pKi) is 6.30 to 6.70.

Turning to `COc1cccc(S(=O)(=O)c2cnc3ccc(Cl)cc3c2N2CCC(C)CC2)c1` [Compound 215], the pKi was greater than 6.70.

As to `CC1CCN(c2c(S(=O)(=O)c3cccc(Cl)c3)cnc3ccc(Cl)cc23)CC1` [Compound 216], the pKi was less than 6.30.

On to `Cc1ccc(S(=O)(=O)c2cnc3ccc(Cl)cc3c2N2CCC(C)CC2)cc1F` [Compound 217], for which the pKi is 6.30 to 6.70.

Regarding `CC1CCN(c2c(S(=O)(=O)c3ccc(C#N)cc3)cnc3ccc(Cl)cc23)CC1` [Compound 218], the negative logarithm of the Ki (pKi) is less than 6.30.

`Cc1ccc(S(=O)(=O)c2cnc3ccc(Cl)cc3c2N2CCC(C)CC2)cc1Cl` [Compound 219] gave a pKi of 6.30 to 6.70.

Molecule `Cc1ccc(S(=O)(=O)c2cnc3ccc(Cl)cc3c2N2CCC(C)CC2)cc1C` [Compound 220] gave a pKi greater than 6.70.

`COc1ccc(S(=O)(=O)c2cnc3ccc(Cl)cc3c2N2CCC(C)CC2)cc1Cl` [Compound 221] gave a negative logarithm of the Ki (pKi) of less than 6.30.

For `CC1CCN(c2c(S(=O)(=O)c3ccc(F)c(F)c3)cnc3ccc(Cl)cc23)CC1` [Compound 222], the negative-log Ki (pKi) was 6.30 to 6.70.

Molecule `CC1CCN(c2c(S(=O)(=O)c3ccc(Cl)c(Cl)c3)cnc3ccc(Cl)cc23)CC1` [Compound 223] had a negative logarithm of the Ki (pKi) greater than 6.70.

Molecule `Cc1cc(C)cc(S(=O)(=O)c2cnc3ccc(Cl)cc3c2N2CCC(C)CC2)c1` [Compound 224] gave a pKi of less than 6.30.

Take `COc1ccc(S(=O)(=O)c2cnc3ccc(Cl)cc3c2N2CCC(C)CC2)cc1OC` [Compound 225]: the pKi is 6.30 to 6.70.

The molecule `CC1CCN(c2c(S(=O)(=O)c3cc(Cl)cc(Cl)c3)cnc3c(F)cccc23)CC1` [Compound 226] showed a negative logarithm of the Ki (pKi) greater than 6.70.

Take `CC1CCN(c2c(S(=O)(=O)c3cc(F)cc(F)c3)cnc3c(F)cccc23)CC1` [Compound 227]: the pKi was less than 6.30.
